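In this assay, cells in 96-well plates receive the compound at five concentrations for 48 hours. Endpoints are linearly interpolated between the surrounding concentrations. TGI: total growth inhibition.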
Assays:
Experiment in all cases: DTP human tumour cell line panel, 48 h
HOP-62 NSCLC = system: HOP-62 NSCLC
SK-OV-3 ovarian = system: SK-OV-3 ovarian
K-562 leukemia = system: K-562 leukemia
SNB-19 CNS = system: SNB-19 CNS
HCT-15 colon = system: HCT-15 colon
RPMI-8226 leukemia = system: RPMI-8226 leukemia
BT-549 breast = system: BT-549 breast
NCI/ADR-RES ovarian = system: NCI/ADR-RES ovarian
786-0 renal = system: 786-0 renal
SW-620 colon = system: SW-620 colon
NCI-H460 lung = system: NCI-H460 lung
UO-31 renal = system: UO-31 renal
SN12C renal = system: SN12C renal
COLO 205 colon = system: COLO 205 colon
A498 renal = system: A498 renal
SF-268 CNS = system: SF-268 CNS
SK-MEL-5 melanoma = system: SK-MEL-5 melanoma
OVCAR-5 ovarian = system: OVCAR-5 ovarian
SK-MEL-2 melanoma = system: SK-MEL-2 melanoma
NCI-H23 lung = system: NCI-H23 lung
MOLT-4 leukemia = system: MOLT-4 leukemia
HCT-116 colon = system: HCT-116 colon
PC-3 prostate = system: PC-3 prostate
UACC-257 melanoma = system: UACC-257 melanoma
MDA-MB-435 = system: MDA-MB-435
LOX IMVI melanoma = system: LOX IMVI melanoma
HCC-2998 colon = system: HCC-2998 colon
NCI-H226 lung = system: NCI-H226 lung
IGROV1 ovarian = system: IGROV1 ovarian
OVCAR-8 ovarian = system: OVCAR-8 ovarian
UACC-62 melanoma = system: UACC-62 melanoma
SR leukemia = system: SR leukemia
MALME-3M melanoma = system: MALME-3M melanoma
TK-10 renal = system: TK-10 renal
A549 NSCLC = system: A549 NSCLC
ACHN renal = system: ACHN renal
SK-MEL-28 melanoma = system: SK-MEL-28 melanoma
T-47D breast = system: T-47D breast
EKVX NSCLC = system: EKVX NSCLC
U251 CNS = system: U251 CNS
DU-145 prostate = system: DU-145 prostate
RXF 393 renal = system: RXF 393 renal
MCF7 breast = system: MCF7 breast
HT29 colon = system: HT29 colon
M14 melanoma = system: M14 melanoma
SF-539 CNS = system: SF-539 CNS
NCI-H522 lung = system: NCI-H522 lung
SNB-75 CNS = system: SNB-75 CNS
CAKI-1 renal = system: CAKI-1 renal
OVCAR-4 ovarian = system: OVCAR-4 ovarian
SF-295 CNS = system: SF-295 CNS
MDA-MB-231 breast = system: MDA-MB-231 breast
CCRF-CEM leukemia = system: CCRF-CEM leukemia
HL-60(TB) leukemia = system: HL-60(TB) leukemia
OVCAR-3 ovarian = system: OVCAR-3 ovarian
KM12 colon = system: KM12 colon
HOP-92 NSCLC = system: HOP-92 NSCLC

For `N#Cc1c(-c2ccc([N+](=O)[O-])cc2)cc(-c2ccc(Nc3ccnc4cc(C(F)(F)F)ccc34)cc2)[nH]c1=O`, which TGI (HOP-62 NSCLC) is on record?
Its TGI is greater than 100 µM.

And the TGI (SK-OV-3 ovarian)?
Its TGI is greater than 100 µM.

And the TGI (K-562 leukemia)?
Its TGI is greater than 100 µM.

What about the TGI (SNB-19 CNS) of the same compound?
Its TGI is 82.7 µM.

What about the TGI (HCT-15 colon) of the same compound?
Its TGI is greater than 100 µM.

What about the TGI (RPMI-8226 leukemia) of the same compound?
Its TGI is greater than 100 µM.

What about the TGI (BT-549 breast) of the same compound?
Its TGI is greater than 100 µM.

And the TGI (NCI/ADR-RES ovarian)?
Its TGI is greater than 100 µM.

What about the TGI (786-0 renal) of the same compound?
The TGI was greater than 100 µM.

What about the TGI (SW-620 colon) of the same compound?
Its TGI is greater than 100 µM.

And the TGI (NCI-H460 lung)?
The TGI was greater than 100 µM.

And the TGI (UO-31 renal)?
Its TGI is greater than 100 µM.

What about the TGI (SN12C renal) of the same compound?
Its TGI is greater than 100 µM.

What about the TGI (COLO 205 colon) of the same compound?
The TGI was 29.1 µM.

What about the TGI (A498 renal) of the same compound?
Its TGI is greater than 100 µM.

What about the TGI (SF-268 CNS) of the same compound?
Its TGI is greater than 100 µM.

What about the TGI (SK-MEL-5 melanoma) of the same compound?
Its TGI is greater than 100 µM.

What about the TGI (OVCAR-5 ovarian) of the same compound?
The TGI was 40.1 µM.

What about the TGI (SK-MEL-2 melanoma) of the same compound?
Its TGI is greater than 100 µM.

What about the TGI (NCI-H23 lung) of the same compound?
The TGI was greater than 100 µM.

And the TGI (MOLT-4 leukemia)?
The TGI was greater than 100 µM.

And the TGI (HCT-116 colon)?
The TGI was 66.1 µM.

And the TGI (PC-3 prostate)?
The TGI was greater than 100 µM.

What about the TGI (UACC-257 melanoma) of the same compound?
The TGI was greater than 100 µM.

What about the TGI (MDA-MB-435) of the same compound?
The TGI was greater than 100 µM.

And the TGI (LOX IMVI melanoma)?
Its TGI is greater than 100 µM.

What about the TGI (HCC-2998 colon) of the same compound?
The TGI was greater than 100 µM.

And the TGI (NCI-H226 lung)?
Its TGI is greater than 100 µM.

What about the TGI (IGROV1 ovarian) of the same compound?
The TGI was greater than 100 µM.

What about the TGI (OVCAR-8 ovarian) of the same compound?
Its TGI is greater than 100 µM.

And the TGI (UACC-62 melanoma)?
Its TGI is greater than 100 µM.

And the TGI (SR leukemia)?
The TGI was greater than 100 µM.

What about the TGI (MALME-3M melanoma) of the same compound?
The TGI was greater than 100 µM.

And the TGI (TK-10 renal)?
The TGI was greater than 100 µM.

And the TGI (A549 NSCLC)?
The TGI was greater than 100 µM.

And the TGI (ACHN renal)?
The TGI was greater than 100 µM.

What about the TGI (SK-MEL-28 melanoma) of the same compound?
The TGI was greater than 100 µM.

And the TGI (T-47D breast)?
Its TGI is greater than 100 µM.

And the TGI (EKVX NSCLC)?
Its TGI is greater than 100 µM.

What about the TGI (U251 CNS) of the same compound?
The TGI was 21.9 µM.

And the TGI (DU-145 prostate)?
Its TGI is greater than 100 µM.

And the TGI (RXF 393 renal)?
Its TGI is greater than 100 µM.

What about the TGI (MCF7 breast) of the same compound?
Its TGI is greater than 100 µM.

What about the TGI (HT29 colon) of the same compound?
The TGI was greater than 100 µM.

And the TGI (M14 melanoma)?
The TGI was greater than 100 µM.

And the TGI (SF-539 CNS)?
The TGI was greater than 100 µM.

What about the TGI (NCI-H522 lung) of the same compound?
The TGI was greater than 100 µM.

What about the TGI (SNB-75 CNS) of the same compound?
Its TGI is greater than 100 µM.

What about the TGI (CAKI-1 renal) of the same compound?
Its TGI is greater than 100 µM.

And the TGI (OVCAR-4 ovarian)?
Its TGI is greater than 100 µM.

And the TGI (SF-295 CNS)?
The TGI was greater than 100 µM.

What about the TGI (MDA-MB-231 breast) of the same compound?
The TGI was 44.7 µM.

What about the TGI (CCRF-CEM leukemia) of the same compound?
Its TGI is greater than 100 µM.

Which TGI (HOP-62 NSCLC) does the source give for `COc1ccc(C23OCC(Cc4cc(OC)c(OC)cc42)C3COC(C)=O)cc1OC` (stereo not given) here?
Its TGI is greater than 100 µM.

What about the TGI (SK-OV-3 ovarian) of the same compound?
The TGI was greater than 100 µM.

What about the TGI (K-562 leukemia) of the same compound?
The TGI was greater than 100 µM.

And the TGI (SNB-19 CNS)?
Its TGI is greater than 100 µM.

What about the TGI (HCT-15 colon) of the same compound?
Its TGI is greater than 100 µM.

What about the TGI (RPMI-8226 leukemia) of the same compound?
Its TGI is greater than 100 µM.

And the TGI (BT-549 breast)?
The TGI was greater than 100 µM.

And the TGI (NCI/ADR-RES ovarian)?
Its TGI is greater than 100 µM.

And the TGI (786-0 renal)?
Its TGI is greater than 100 µM.

What about the TGI (SW-620 colon) of the same compound?
Its TGI is greater than 100 µM.

What about the TGI (NCI-H460 lung) of the same compound?
The TGI was greater than 100 µM.

What about the TGI (UO-31 renal) of the same compound?
Its TGI is greater than 100 µM.

What about the TGI (HL-60(TB) leukemia) of the same compound?
The TGI was greater than 100 µM.

And the TGI (COLO 205 colon)?
The TGI was greater than 100 µM.

And the TGI (A498 renal)?
The TGI was greater than 100 µM.

And the TGI (SF-268 CNS)?
Its TGI is greater than 100 µM.

What about the TGI (SK-MEL-5 melanoma) of the same compound?
The TGI was greater than 100 µM.

And the TGI (OVCAR-5 ovarian)?
The TGI was greater than 100 µM.

And the TGI (SK-MEL-2 melanoma)?
The TGI was greater than 100 µM.

And the TGI (NCI-H23 lung)?
Its TGI is greater than 100 µM.

And the TGI (MOLT-4 leukemia)?
Its TGI is greater than 100 µM.

And the TGI (HCT-116 colon)?
Its TGI is greater than 100 µM.

And the TGI (PC-3 prostate)?
The TGI was greater than 100 µM.

And the TGI (MDA-MB-435)?
Its TGI is greater than 100 µM.

What about the TGI (LOX IMVI melanoma) of the same compound?
Its TGI is greater than 100 µM.

And the TGI (HCC-2998 colon)?
The TGI was greater than 100 µM.

And the TGI (OVCAR-3 ovarian)?
The TGI was greater than 100 µM.

And the TGI (NCI-H226 lung)?
Its TGI is greater than 100 µM.

And the TGI (KM12 colon)?
Its TGI is greater than 100 µM.

And the TGI (UACC-62 melanoma)?
Its TGI is greater than 100 µM.

What about the TGI (SR leukemia) of the same compound?
The TGI was greater than 100 µM.

And the TGI (MALME-3M melanoma)?
Its TGI is greater than 100 µM.

What about the TGI (TK-10 renal) of the same compound?
The TGI was greater than 100 µM.

And the TGI (A549 NSCLC)?
The TGI was greater than 100 µM.

And the TGI (ACHN renal)?
Its TGI is greater than 100 µM.

What about the TGI (SK-MEL-28 melanoma) of the same compound?
Its TGI is greater than 100 µM.

What about the TGI (T-47D breast) of the same compound?
The TGI was greater than 100 µM.

What about the TGI (EKVX NSCLC) of the same compound?
The TGI was greater than 100 µM.

And the TGI (U251 CNS)?
The TGI was greater than 100 µM.

What about the TGI (DU-145 prostate) of the same compound?
Its TGI is greater than 100 µM.

And the TGI (RXF 393 renal)?
Its TGI is greater than 100 µM.

And the TGI (MCF7 breast)?
Its TGI is greater than 100 µM.

And the TGI (HT29 colon)?
Its TGI is greater than 100 µM.

What about the TGI (HOP-92 NSCLC) of the same compound?
The TGI was greater than 100 µM.

What about the TGI (M14 melanoma) of the same compound?
Its TGI is greater than 100 µM.

And the TGI (SF-539 CNS)?
The TGI was greater than 100 µM.

What about the TGI (NCI-H522 lung) of the same compound?
Its TGI is greater than 100 µM.

What about the TGI (SNB-75 CNS) of the same compound?
The TGI was greater than 100 µM.

What about the TGI (CAKI-1 renal) of the same compound?
Its TGI is greater than 100 µM.

And the TGI (OVCAR-4 ovarian)?
The TGI was greater than 100 µM.

What about the TGI (SF-295 CNS) of the same compound?
Its TGI is greater than 100 µM.

And the TGI (MDA-MB-231 breast)?
Its TGI is greater than 100 µM.
